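Protocol summary: plate cells (96-well), add compound at 5 concentrations, incubate 48 h, interpolate endpoints linearly. GI50: concentration for 50% inhibition of growth. TGI marks complete inhibition of growth.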
Experiments:
Experiment in all cases: growth of human tumour cells (NCI), 48 h
RPMI-8226 leukemia = test system: RPMI-8226 leukemia
SNB-19 CNS = test system: SNB-19 CNS
A498 renal = test system: A498 renal
ACHN renal = test system: ACHN renal
TK-10 renal = test system: TK-10 renal
MCF7 breast = test system: MCF7 breast
UACC-257 melanoma = test system: UACC-257 melanoma
SF-268 CNS = test system: SF-268 CNS
NCI-H460 lung = test system: NCI-H460 lung
K-562 leukemia = test system: K-562 leukemia

SMILES | TGI (RPMI-8226 leukemia) | TGI (SNB-19 CNS) | TGI (A498 renal) | TGI (ACHN renal) | TGI (TK-10 renal) | TGI (MCF7 breast) | TGI (UACC-257 melanoma) | TGI (SF-268 CNS) | TGI (NCI-H460 lung) | TGI (K-562 leukemia) | GI50 (RPMI-8226 leukemia) | GI50 (SNB-19 CNS) | GI50 (A498 renal) | GI50 (ACHN renal) | GI50 (TK-10 renal) | GI50 (MCF7 breast) | GI50 (UACC-257 melanoma) | GI50 (SF-268 CNS) | GI50 (NCI-H460 lung) | GI50 (K-562 leukemia)
COc1cc2oc3cc(=O)cc4oc(-c5ccccc5)cc(c2c2c1CCC(c1ccccc1)O2)c43 (centres undefined) | 20.9 µM | > 100 µM | > 100 µM | 61.9 µM | 83.4 µM | 59.2 µM | 69 µM | > 100 µM | > 100 µM | 83.9 µM | – | – | – | – | – | – | – | – | – | –
c1cc2n(n1)CCN2 | > 10000 µM | > 10000 µM | 6270 µM | 5330 µM | > 10000 µM | > 8650 µM | > 10000 µM | 8200 µM | 6710 µM | > 10000 µM | – | – | – | – | – | – | – | – | – | –
CC(=O)C(=Cc1ccc(C=C(C(C)=O)C(C)=O)cc1)C(C)=O | 1.71 µM | 5.46 µM | 9.03 µM | 3.59 µM | 5.31 µM | 2.36 µM | 4.48 µM | 3.97 µM | 7.38 µM | 6.12 µM | – | – | – | – | – | – | – | – | – | –
CC1OC(OC2C[C@](O)(C(=O)CF)Cc3c(O)c4c(c(O)c32)C(=O)c2ccccc2C4=O)CC(N)C1O (some centres undefined) | 0.132 µM | 5.23 µM | 1.28 µM | 0.0777 µM | 0.497 µM | 1.08 µM | 1.21 µM | 1.37 µM | 0.031 µM | 1.96 µM | – | – | – | – | – | – | – | – | – | –
CN(C)CCNC(=O)c1cc([N+](=O)[O-])cc2c1Oc1ccccc1O2 | > 100 µM | – | > 100 µM | > 100 µM | > 100 µM | > 100 µM | > 100 µM | > 100 µM | > 100 µM | > 100 µM | – | – | – | – | – | – | – | – | – | –
O=[N+]([O-])c1ccc2c(c1)Cc1cc(N=Cc3ccc4c(c3)OCO4)ccc1-2 | > 100 µM | > 100 µM | > 100 µM | > 100 µM | > 100 µM | > 100 µM | > 100 µM | > 100 µM | > 100 µM | > 100 µM | – | – | – | – | – | – | – | – | – | –
Cc1cc(NCCN(C(C)C)C(C)C)nc(/N=C(\N)Nc2ccc(Cl)c(C(F)(F)F)c2)n1 | 0.662 µM | 2.83 µM | 1.42 µM | 1.06 µM | 1.04 µM | 0.851 µM | 0.337 µM | 1.76 µM | 1.62 µM | 0.411 µM | 0.22 µM | 1.48 µM | 0.139 µM | 0.381 µM | 0.297 µM | 0.269 µM | 0.187 µM | 0.67 µM | 0.463 µM | 0.191 µM
Cc1cc(Cl)ccc1Nc1nc(C(F)(F)F)ccc1C(=O)N/N=C/c1ccc(Cl)cc1 | 6.3 µM | 12.4 µM | 6.13 µM | 8.71 µM | 7.01 µM | 4.7 µM | 16.3 µM | 10.1 µM | 9.08 µM | 8.22 µM | 2.01 µM | 2.6 µM | 1.91 µM | 2.48 µM | 1.66 µM | 1.55 µM | 3.67 µM | 1.35 µM | 2.37 µM | 1.83 µM
CNC(=O)c1cccc2cc(Oc3ccnc4cc(OCC5(N)CC5)c(OC)cc34)ccc12 | 39.7 µM | 30.4 µM | 3.12 µM | 4.48 µM | 26.6 µM | 17.8 µM | 32.2 µM | 24.2 µM | 18.1 µM | 16.7 µM | 12.9 µM | 5.82 µM | 0.167 µM | 1.96 µM | 12.9 µM | 3.89 µM | 16.5 µM | 6.01 µM | 5.12 µM | 3.55 µM

— PubChem BioAssay (NCI)
